Counter-ions that a name gives are not always drawn. Like-named read-outs stand apart in the source and are kept apart here.
What was measured:
[1] = target: T1, NR1A/NR2B NMDA receptor subtype (Rattus norvegicus, UniProt P35439+Q00960); assay: [3H]Ifenprodil binding assay (IFPNR), rat forebrain membranes
T1 construct: buffy coat membrane fraction was prepared from frozen adult rat forebrains; tissue Zivic-Miller Laboratories, Inc; host or cells: adult rat forebrain membranes
Procedure: b. [^3H]Ifenprodil Binding Assay (IFPNR) Protocol:
Ifenprodil, [phenyl-^3H]-(specific activity, 66.2 Ci/mmol) was purchased from Dupont NEN Research Products (Boston, Mass.). Ifenprodil tartrate was purchased from Research Biochemicals International (Natick, Mass.). HEPES, glutamate and glycine were purchased from Sigma Chemical Co. (St. Louis, Mo.).
All buffers and reagents used in assay incubations or to dissolve drugs were prepared using water purified through a Milli-Q reverse osmosis system (Millipore Corp., Bedford, Mass.) and treated with UV emissions. Prior to use in the assays buffers were further filtered through a sterile Coming filtration unit (Coming Glass Works, Coming, N.Y.) containing a 0.2 micron filter. Buffer used to rinse the membranes on the assay filters was prepared with purified water, but was not refiltered and was stored no longer than 5 days. Stock solutions of the drugs (usually 10 mM) were dissolved in 20 mM HEPES-KOH buffer pH 7.4 (assay buffer) with the addition of 1 to 5 μL of glacial AcOH, if needed to keep them in solution. Eliprodil was used as the reference NMDA antagonist. A stock solution of eliprodil was prepared, and was buffered with the addition of 10% DMSO. All subsequent dilutions from the stock solution were made in buffer.
An extensively washed buffy coat membrane fraction was prepared from frozen adult rat forebrains (Zivic-Miller Laboratories, Inc., Zelienople, Pa.) as described by Coughenour L. L.; Cordon, J. J., J. Pharmacol. Exp. Ther., 1997;280:584-592, and stored at −80° C. On the day of the assay, pellets of the frozen membrane fractions were resuspended in 35 mL of assay buffer at pH 7.4 using a POLYTRON (Kinematica A. G. Company, Littau, Switzerland) mixer at setting 6. After incubation at 37° C. for 30 minutes in a shaking water bath, the homogenate was centrifuged 40,000×g for 10 minutes at 4° C. The pellets were resuspended in fresh buffer and centrifuged 3 more times before final suspension for use in the assay.
(iii) [^3H]Ifenprodil Binding protocol:
Triplicate incubations were carried out in a volume of 0.5 mL in 1.3 mL polypropylene tubes (Marsh Biomedical Products Inc, Rochester, N.Y.) for 2 hours at room temperature. Incubations contained invention compounds, membranes (100-200 μg protein) and 4 nM [^3H]-ifenprodil in 20 mM HEPES-KOH buffer, pH 7.4 (assay buffer). Assays were started by addition of the membranes. Bound radioligand was separated by filtration under reduced pressure using a TOMTEC Mach II, 96-well cell harvester (Tomtec Inc, Orange, Conn.). Filtration was through Whatman GF/B glass fiber filters (Whatman Ltd., Maidstone, England), which had been soaked for at least 15 minutes in 0.3% polyethylenimine and allowed to air dry. The filters were rinsed with 3 mL of ice cold assay buffer within 6 seconds. Air was allowed to pass through the filters for an additional 10 seconds to remove residual moisture. The filter mat was supported on a cold (−20° C.) TEFLON (E. I. Du Pont de Nemours and Company, Wilmington, Del.) coated support, and filters from individual wells were separated and placed in Mini Poly-Q vials (Becklman Instruments Inc, Fullerton, Calif.) and filled with 4 mL of scintillation cocktail (Beckman Ready Protein^+). Radioactivity retained on the filter was determined by liquid scintillation spectrophotometry. Nonspecific binding was defined as the binding in the presence of […] ifenprodil. Ninety percent of the total binding of ifenprodil was specific binding at the NR1A/NR2B NMDA receptor subtype active site (as opposed to binding at a remote site).
Binding curves were statistically analyzed for a best 1- or 2-site competition fit using GRAPHPAD PRISM software (GraphPad Software Inc, San Diego, Calif.), a computer program used to analyze and graph scientific data. The normalized data was fitted by nonweighted nonlinear regression to either [formula]
Control data was entered as 100%, and no parameters were constrained. […]

[2] = Table 5, 4 nM [3H]-ifenprodil, read-out: IFPNR IC50
[3] = Table 3, 4 nM [3H]-ifenprodil, read-out: IFPNR IC50
[4] = Table 2, 4 nM [3H]-ifenprodil, read-out: IFPNR IC50 μm
[5] = Table 4, 4 nM [3H]-ifenprodil, read-out: IFPNR IC50

T1 sequence (Q00960 27-1482, other chains not shown): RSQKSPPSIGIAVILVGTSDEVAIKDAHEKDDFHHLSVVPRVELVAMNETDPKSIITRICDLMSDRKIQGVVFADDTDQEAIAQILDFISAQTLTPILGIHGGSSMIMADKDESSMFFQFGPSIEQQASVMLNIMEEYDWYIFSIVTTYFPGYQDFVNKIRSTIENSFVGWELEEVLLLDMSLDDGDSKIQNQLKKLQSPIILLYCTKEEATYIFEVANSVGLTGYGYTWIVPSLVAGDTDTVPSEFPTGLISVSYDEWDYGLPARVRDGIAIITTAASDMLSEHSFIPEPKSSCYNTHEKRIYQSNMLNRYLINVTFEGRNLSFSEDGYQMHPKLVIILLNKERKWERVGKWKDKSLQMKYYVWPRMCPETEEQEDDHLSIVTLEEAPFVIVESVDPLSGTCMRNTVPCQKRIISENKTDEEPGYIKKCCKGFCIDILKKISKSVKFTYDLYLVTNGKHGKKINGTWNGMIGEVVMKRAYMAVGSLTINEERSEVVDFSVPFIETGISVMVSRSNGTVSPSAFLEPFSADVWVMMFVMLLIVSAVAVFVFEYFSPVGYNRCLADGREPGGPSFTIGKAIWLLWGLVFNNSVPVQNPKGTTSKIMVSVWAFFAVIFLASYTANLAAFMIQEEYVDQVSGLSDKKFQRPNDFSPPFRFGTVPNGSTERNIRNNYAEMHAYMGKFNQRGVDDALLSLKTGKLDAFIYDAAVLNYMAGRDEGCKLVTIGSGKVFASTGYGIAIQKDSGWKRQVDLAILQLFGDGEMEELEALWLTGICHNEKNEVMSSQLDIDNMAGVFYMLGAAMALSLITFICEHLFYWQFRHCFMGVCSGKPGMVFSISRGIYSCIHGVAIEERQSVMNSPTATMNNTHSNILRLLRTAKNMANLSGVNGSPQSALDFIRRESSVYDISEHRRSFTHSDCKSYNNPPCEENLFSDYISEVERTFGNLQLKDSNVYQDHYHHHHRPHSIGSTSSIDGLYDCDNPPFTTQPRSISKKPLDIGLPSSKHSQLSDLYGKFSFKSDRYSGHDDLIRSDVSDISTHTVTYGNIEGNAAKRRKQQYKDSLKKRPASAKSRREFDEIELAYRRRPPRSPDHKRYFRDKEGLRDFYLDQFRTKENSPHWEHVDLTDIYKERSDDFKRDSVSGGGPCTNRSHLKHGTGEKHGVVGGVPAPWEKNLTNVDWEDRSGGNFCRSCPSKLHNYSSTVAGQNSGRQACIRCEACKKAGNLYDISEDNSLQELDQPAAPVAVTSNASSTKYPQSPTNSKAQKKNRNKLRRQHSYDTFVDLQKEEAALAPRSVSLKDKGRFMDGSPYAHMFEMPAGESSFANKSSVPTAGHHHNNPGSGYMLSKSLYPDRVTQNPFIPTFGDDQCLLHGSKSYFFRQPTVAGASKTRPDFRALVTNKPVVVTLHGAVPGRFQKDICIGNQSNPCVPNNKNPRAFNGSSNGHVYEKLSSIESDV

For `O=c1[nH]c2ccc(C3=NOC(CN4CCC(Cc5ccc(F)cc5)CC4)C3)cc2s1` (centres unmarked) (as salt: HCl) [Example 16], the melting point was 271 to 276 °C.
In the case of `O=c1[nH]c2ccc(C3=NOC(CN4CCC(O)(Cc5ccccc5)CC4)C3)cc2o1` (centres unmarked) (as salt: HCl) [Example 17, 6-[5-(4-Benzyl-4-hydroxypiperidin-1-ylmethyl)-4,5-dihydroisoxazol-3-yl]-3H-benzoxazol-2-one], the melting point is reported as 166 to 170 °C.
`O=c1[nH]c2ccc(C3=NOC(CCN4CCC(Cc5ccc(F)cc5)CC4)C3)cc2o1` (centres unmarked) (as salt: HCl) [Example 19, 6-(5-{2-[4-(4-Fluorobenzyl)piperidin-1-yl]ethyl}-4,5-dihydroisoxazol-3-yl)-3H-benzoxazol-2-one] gave a melting point of 254 to 258 °C.
Compound `O=c1[nH]c2ccc(C3=NOC(CN4CCC(O)(Cc5ccc(F)cc5)CC4)C3)cc2o1` (centres unmarked) (as salt: HCl) [Example 20, 6-{5-[4-(4-Fluorobenzyl)-4-hydroxypiperidin-1-ylmethyl]-4,5-dihydroisoxazol-3-yl}-3H-benzoxazol-2-one] has a melting point of 195 to 204 °C.
Compound `O=c1[nH]c2ccc(C3=NOC(CN4CCC([S+]([O-])c5ccc(F)cc5)CC4)C3)cc2o1` (centres unmarked) (as salt: HCl) [Example 29, 6-{5-[4-(4-Fluorobenzenesulfinyl)piperidin-1-ylmethyl]-4,5-dihydroisoxazol-3-yl}-3H-benzoxazol-2-one] has a melting point of 170 to 178 °C.
In the case of `O=c1[nH]c2ccc(C3=NOC(CN4CCC(C(O)c5ccc(F)cc5)CC4)C3)cc2o1` (centres unmarked) (as salt: HCl) [Example 31, 6-(5-{4-[(4-Fluorophenyl)hydroxymethyl]piperidin-1-ylmethyl}-4,5-dihydroisoxazol-3-yl)-3H-benzoxazol-2-one], the melting point is reported as 186 to 191 °C.
Work on `COC(=O)C1(CN2CCC(Cc3ccc(F)cc3)CC2)CC(c2ccc3[nH]c(=O)oc3c2)=NO1` (centres unmarked) (as salt: salt) [Example 23, 5-[4-(4-Fluorobenzyl)piperidin-1-ylmethyl]-3-(2-oxo-2,3-dihydrobenzoxazol-6-yl)-4,5-dihydroisoxazole-5-carboxylic acid methyl ester] yielded a melting point of 146 to 155 °C.
`O=c1[nH]c2ccc(C3=NOC(CN4CCC(Cc5ccc(F)cc5)CC4)C3)cc2o1` (racemic) [Example 3, 6-{5-[4-(4-Fluorobenzyl)piperidin-1-ylmethyl]-4,5-dihydroisoxazol-3-yl}-3H-benzoxazol-2-one hydrochloride] gave an IC50 ([1]; Table 1, 4 nM [3H]-ifenprodil, read-out: IFPNR (IC50 μM)) of 0.03 µM.
`O=c1[nH]c2ccc(C3=NOC(CN4CC[C@@H](Cc5ccc(F)cc5)[C@@H](O)C4)C3)cc2o1` (stereo in doubt) (as salt: HCl) [Example 26, 6-{5-[4-(4-Fluorobenzyl)-3-hydroxypiperidin-1-ylmethyl]-4,5-dihydroisoxazol-3-yl}-3H-benzoxazol-2-one] gave a melting point of 224 to 233 °C.
With `O=c1[nH]c2ccc(C3=NOC(CN4CC[C@@H](Cc5ccc(F)cc5)[C@@H](O)C4)C3)cc2o1` (stereo in doubt) [Example 26, 6-{5-[4-(4-Fluorobenzyl)-3-hydroxypiperidin-1-ylmethyl]-4,5-dihydroisoxazol-3-yl}-3H-benzoxazol-2-one] the IC50 [1, 2] was 0.023 µM.
In the case of `Cc1noc(CN2CCC(Cc3ccccc3)CC2)c1-c1ccc2[nH]c(=O)oc2c1` [Example 2, 6-[5-(4-Benzylpiperidin-1-ylmethyl)-3-methylisoxazol-4-yl]-3H-benzoxazol-2-one], the IC50 [1, 3] is reported as > 1 µM.
`O=c1[nH]c2ccc(-c3cnc(CN4CCC(Cc5ccc(F)cc5)CC4)s3)cc2o1` [Example 6, 6-{2-[4-(4-Fluorobenzyl)piperidin-1-ylmethyl]thiazol-5-yl}-3H-benzoxazol-2-one] showed an IC50 [1, 4] of 0.54 µM.
`O=c1[nH]c2ccc(-c3cnc(CN4CCC(Cc5ccc(F)cc5)CC4)s3)cc2s1` [Example 7, 6-{2-[4-(4-Fluorobenzyl)piperidin-1-ylmethyl]thiazol-5-yl}-3H-benzothiazol-2-one] showed an IC50 [1, 4] of 0.45 µM.
Compound `S=c1[nH]c2ccc(-c3cnc(CN4CCC(Cc5ccccc5)CC4)s3)cc2[nH]1` [Example 8, 5-[2-(4-Benzylpiperidin-1-ylmethyl)thiazol-5-yl]-1,3-dihydrobenzimidazole-2-thione] has an IC50 [1, 4] of 0.066 µM.
With `O=c1[nH]c2ccc(-c3cnc(CN4CCC(Cc5ccc(F)cc5)CC4)o3)cc2s1` [Example 9, 6-{2-[4-(4-Fluorobenzyl)piperidin-1-ylmethyl]oxazol-5-yl}-3H-benzothiazol-2-one] the IC50 [1, 4] was > 1 µM.
For `O=c1[nH]c2ccc(-c3cnc(CN4CCC(Cc5ccccc5)CC4)o3)cc2o1` [Example 10, 6-[2-(4-Benzylpiperidin-1-ylmethyl)oxazol-5-yl]-3H-benzoxazol-2-one], the IC50 [1, 4] was > 1 µM.
For `O=C1Cc2cc(-c3cnc(CN4CCC(Cc5ccccc5)CC4)o3)ccc2N1` [Example 11, 5-[2-(4-Benzylpiperidin-1-ylmethyl)oxazol-5-yl]-1,3-dihydroindol-2-one], the IC50 [1, 4] was > 1 µM.
`O=c1[nH]c2ccc(C3=NCC(CN4CCC(Cc5ccc(F)cc5)CC4)S3)cc2o1` (centres unmarked) [Example 12, 6-{5-[4-(4-Fluorobenzyl)piperidin-1-ylmethyl]-4,5-dihydrothiazol-2-yl}-3H-benzoxazol-2-one] gave an IC50 [1, 4] of 0.394 µM.
In the case of `O=c1[nH]c2ccc(C3=NCC(CN4CCC(Cc5ccccc5)CC4)S3)cc2o1` (centres unmarked) [Example 13, 6-[5-(4-Benzylpiperidin-1-ylmethyl)-4,5-dihydrothiazol-2-yl]-3H-benzoxazol-2-one], the IC50 [1, 4] is reported as 0.101 µM.
Compound `O=c1[nH]c2ccc(C3=NOC(CN4CCC(Cc5ccc(F)cc5)CC4)C3)cc2s1` (centres unmarked) [Example 16] has an IC50 [1, 2] of 0.002 µM.
`O=c1[nH]c2ccc(C3=NOC(CN4CCC(O)(Cc5ccccc5)CC4)C3)cc2o1` (centres unmarked) [Example 17, 6-[5-(4-Benzyl-4-hydroxypiperidin-1-ylmethyl)-4,5-dihydroisoxazol-3-yl]-3H-benzoxazol-2-one] showed an IC50 [1, 3] of 0.006 µM.
For `O=c1[nH]c2ccc(C3=NOC(CCN4CCC(Cc5ccc(F)cc5)CC4)C3)cc2o1` (centres unmarked) [Example 19, 6-(5-{2-[4-(4-Fluorobenzyl)piperidin-1-yl]ethyl}-4,5-dihydroisoxazol-3-yl)-3H-benzoxazol-2-one], the IC50 [1, 3] was 0.4 µM.
Work on `O=c1[nH]c2ccc(C3=NOC(CN4CCC(O)(Cc5ccc(F)cc5)CC4)C3)cc2o1` (centres unmarked) [Example 20, 6-{5-[4-(4-Fluorobenzyl)-4-hydroxypiperidin-1-ylmethyl]-4,5-dihydroisoxazol-3-yl}-3H-benzoxazol-2-one] yielded an IC50 [1, 3] of 0.008 µM.
With `CCOC(=O)C1(Cc2ccc(F)cc2)CCN(CC2CC(c3ccc4[nH]c(=O)oc4c3)=NO2)CC1` (centres unmarked) [Example 24, 4-(4-Fluorobenzyl)-1-[3-(2-oxo-2,3-dihydrobenzoxazol-6-yl)-4,5-dihydroisoxazol-5-ylmethyl]piperidine-4-carboxylic acid ethyl ester] the melting point was 212 to 214 °C.
Compound `O=c1[nH]c2ccc(C3=NOC(CN4CCC([S+]([O-])c5ccc(F)cc5)CC4)C3)cc2o1` (centres unmarked) [Example 29, 6-{5-[4-(4-Fluorobenzenesulfinyl)piperidin-1-ylmethyl]-4,5-dihydroisoxazol-3-yl}-3H-benzoxazol-2-one] has an IC50 [1, 5] of 0.6 µM.
In the case of `O=c1[nH]c2ccc(C3=NOC(CN4CCC(C(O)c5ccc(F)cc5)CC4)C3)cc2o1` (centres unmarked) [Example 31, 6-(5-{4-[(4-Fluorophenyl)hydroxymethyl]piperidin-1-ylmethyl}-4,5-dihydroisoxazol-3-yl)-3H-benzoxazol-2-one], the IC50 [1, 5] is reported as > 1 µM.
